Measurements taken from ChEMBL document CHEMBL1201862, “PubChem BioAssay data set” (2004).
The source made the active and inactive calls.

Experiments:
[1] = SAR analysis of small molecule activators of Apaf-1 using a LZ-Caspase-9/Caspase-3 Fluorescent Selectivity assay - Set 2.; format: functional; settings: read-out: EC50_Mean
[2] = target: T1, Apoptotic protease-activating factor 1 (Homo sapiens, UniProt O14727); assay: SAR analysis of small molecule Activators of Apaf-1 in a Fluorescent assay - set 2.; format: functional; settings: read-out: EC50_Mean
T1 sequence (O14727 whole entry): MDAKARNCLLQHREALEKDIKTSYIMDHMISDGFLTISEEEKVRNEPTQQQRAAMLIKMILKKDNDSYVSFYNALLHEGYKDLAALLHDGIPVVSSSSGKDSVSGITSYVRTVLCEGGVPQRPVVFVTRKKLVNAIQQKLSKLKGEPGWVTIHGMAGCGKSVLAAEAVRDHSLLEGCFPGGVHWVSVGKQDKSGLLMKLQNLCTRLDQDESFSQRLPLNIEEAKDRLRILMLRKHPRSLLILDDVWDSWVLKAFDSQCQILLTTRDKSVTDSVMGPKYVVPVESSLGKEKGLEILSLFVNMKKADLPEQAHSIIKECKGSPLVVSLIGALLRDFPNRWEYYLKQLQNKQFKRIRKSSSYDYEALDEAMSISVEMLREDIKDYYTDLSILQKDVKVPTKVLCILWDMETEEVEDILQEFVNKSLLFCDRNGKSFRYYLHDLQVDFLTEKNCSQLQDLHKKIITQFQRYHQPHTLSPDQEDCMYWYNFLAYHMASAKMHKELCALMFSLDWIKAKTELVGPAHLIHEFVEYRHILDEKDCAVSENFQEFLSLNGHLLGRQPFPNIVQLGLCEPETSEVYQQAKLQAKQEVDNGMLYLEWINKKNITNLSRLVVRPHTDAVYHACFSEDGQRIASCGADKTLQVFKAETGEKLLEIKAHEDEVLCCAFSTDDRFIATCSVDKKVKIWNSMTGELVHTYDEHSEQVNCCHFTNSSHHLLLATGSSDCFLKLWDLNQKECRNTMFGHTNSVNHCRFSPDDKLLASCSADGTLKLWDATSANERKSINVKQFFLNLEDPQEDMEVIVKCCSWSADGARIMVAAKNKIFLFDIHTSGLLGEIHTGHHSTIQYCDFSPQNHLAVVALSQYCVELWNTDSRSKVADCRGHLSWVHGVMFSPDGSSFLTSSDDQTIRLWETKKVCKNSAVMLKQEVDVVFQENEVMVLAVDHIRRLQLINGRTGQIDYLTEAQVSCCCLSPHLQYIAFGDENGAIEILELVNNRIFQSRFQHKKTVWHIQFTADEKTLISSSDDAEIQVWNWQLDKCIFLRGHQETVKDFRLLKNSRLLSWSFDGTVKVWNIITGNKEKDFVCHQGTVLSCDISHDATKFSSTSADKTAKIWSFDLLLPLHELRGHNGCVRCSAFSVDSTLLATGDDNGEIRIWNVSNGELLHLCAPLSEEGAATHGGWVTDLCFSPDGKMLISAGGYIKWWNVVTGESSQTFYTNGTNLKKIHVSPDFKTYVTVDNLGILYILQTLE

[3] = target: Melanin-concentrating hormone receptor 1 (Homo sapiens, UniProt Q99705); assay: Late-stage fluorescence-based counterscreen for antagonists of the G-protein coupled receptor 7 (GPR7): cell-based dose response assay to identify antagonists of the melanin-concentrating hormone receptor 1 (MCHR1) Set 6.; format: functional
Sequence of Melanin-concentrating hormone receptor 1 (Q99705 whole entry): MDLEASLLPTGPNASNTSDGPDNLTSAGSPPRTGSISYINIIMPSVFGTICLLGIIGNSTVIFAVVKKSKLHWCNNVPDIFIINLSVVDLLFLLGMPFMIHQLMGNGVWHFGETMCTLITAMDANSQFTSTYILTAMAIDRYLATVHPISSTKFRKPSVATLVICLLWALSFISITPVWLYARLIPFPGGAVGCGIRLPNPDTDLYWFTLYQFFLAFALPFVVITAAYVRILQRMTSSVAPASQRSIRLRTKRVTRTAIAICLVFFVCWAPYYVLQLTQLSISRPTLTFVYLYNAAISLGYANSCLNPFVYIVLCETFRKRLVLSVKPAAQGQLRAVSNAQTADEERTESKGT

[4] = target: Neuropeptides B/W receptor type 1 (Homo sapiens, UniProt P48145); assay: human NPBW1 receptor blockade, IC50 – cell-based, fluorescence, dose response, set 6, late-stage follow-up (AID 588583); format: functional
Sequence of Neuropeptides B/W receptor type 1 (P48145 whole entry): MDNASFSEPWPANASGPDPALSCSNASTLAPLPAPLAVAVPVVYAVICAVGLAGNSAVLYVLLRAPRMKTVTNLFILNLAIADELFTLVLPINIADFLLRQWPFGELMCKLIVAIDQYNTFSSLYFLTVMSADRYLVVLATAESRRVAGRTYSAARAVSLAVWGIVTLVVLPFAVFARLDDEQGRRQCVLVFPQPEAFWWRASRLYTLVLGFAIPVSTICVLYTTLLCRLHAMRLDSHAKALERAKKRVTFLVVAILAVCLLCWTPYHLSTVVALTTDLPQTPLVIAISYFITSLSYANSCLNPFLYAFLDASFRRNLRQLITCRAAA

[5] = target: Protein-tyrosine kinase 2-beta (Homo sapiens, UniProt Q14289);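 note: potency of inhibitors of PYK2 kinase phosphorylation of poly-GT substrate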
Sequence of Protein-tyrosine kinase 2-beta (Q14289 whole entry): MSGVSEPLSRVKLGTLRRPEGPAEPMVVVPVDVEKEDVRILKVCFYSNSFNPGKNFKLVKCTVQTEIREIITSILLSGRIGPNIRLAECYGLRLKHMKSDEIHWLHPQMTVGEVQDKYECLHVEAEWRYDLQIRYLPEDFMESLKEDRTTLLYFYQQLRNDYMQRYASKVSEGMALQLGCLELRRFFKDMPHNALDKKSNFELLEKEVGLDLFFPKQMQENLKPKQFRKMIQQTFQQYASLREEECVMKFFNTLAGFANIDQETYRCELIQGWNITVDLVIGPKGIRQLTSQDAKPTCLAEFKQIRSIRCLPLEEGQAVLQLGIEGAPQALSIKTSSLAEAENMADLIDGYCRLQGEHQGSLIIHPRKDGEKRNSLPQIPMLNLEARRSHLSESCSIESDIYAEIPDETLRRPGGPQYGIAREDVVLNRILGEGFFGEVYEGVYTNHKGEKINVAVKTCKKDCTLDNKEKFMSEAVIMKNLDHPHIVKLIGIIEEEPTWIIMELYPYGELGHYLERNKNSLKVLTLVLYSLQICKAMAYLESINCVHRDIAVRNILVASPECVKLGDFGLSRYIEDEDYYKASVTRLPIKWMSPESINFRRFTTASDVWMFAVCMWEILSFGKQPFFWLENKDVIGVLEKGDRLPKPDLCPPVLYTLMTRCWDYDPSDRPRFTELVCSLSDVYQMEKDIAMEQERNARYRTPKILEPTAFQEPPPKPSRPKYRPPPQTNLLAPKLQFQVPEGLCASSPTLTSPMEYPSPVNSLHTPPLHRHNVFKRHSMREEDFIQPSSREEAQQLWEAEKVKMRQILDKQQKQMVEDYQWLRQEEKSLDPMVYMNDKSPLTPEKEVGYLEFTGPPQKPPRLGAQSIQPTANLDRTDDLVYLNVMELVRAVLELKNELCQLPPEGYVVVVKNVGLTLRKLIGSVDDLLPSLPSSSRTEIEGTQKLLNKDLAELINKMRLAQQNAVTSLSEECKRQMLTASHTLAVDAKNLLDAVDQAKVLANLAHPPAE

[6] = target: Bifunctional protein GlmU (Mycobacterium tuberculosis, UniProt P9WMN3); assay: Inhibitors of Mycobacterial Glucosamine-1-phosphate acetyl transferase (GlmU). Secondary screen.; design: species or system Mycobacterium tuberculosis H37Rv
Sequence of Bifunctional protein GlmU (P9WMN3 whole entry): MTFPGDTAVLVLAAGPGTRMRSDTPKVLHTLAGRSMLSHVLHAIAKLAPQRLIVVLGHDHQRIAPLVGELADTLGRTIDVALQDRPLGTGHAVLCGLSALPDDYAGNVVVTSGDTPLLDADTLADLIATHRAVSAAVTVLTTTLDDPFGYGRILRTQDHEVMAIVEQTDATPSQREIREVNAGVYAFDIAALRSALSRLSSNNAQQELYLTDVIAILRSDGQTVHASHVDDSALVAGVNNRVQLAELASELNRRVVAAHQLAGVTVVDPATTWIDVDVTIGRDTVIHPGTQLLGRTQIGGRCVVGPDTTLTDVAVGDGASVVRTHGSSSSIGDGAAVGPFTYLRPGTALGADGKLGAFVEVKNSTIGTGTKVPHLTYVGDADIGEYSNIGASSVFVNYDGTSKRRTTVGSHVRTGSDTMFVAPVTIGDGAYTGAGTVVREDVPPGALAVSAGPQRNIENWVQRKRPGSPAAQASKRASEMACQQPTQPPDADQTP

Ephrin type-A receptor 4 = Ephrin type-A receptor 4 (Mus musculus, UniProt Q03137); assay: EphA4 ligand-binding antagonists – biochemical, colorimetric, mouse EphA4, primary screen (AID 689); format: functional
ORF 73 = ORF 73 (Human herpesvirus 8, UniProt O40947); assay: KSHV LANA DNA-binding disruption – biochemical, fluorescence polarization, cherry-picked samples, dose response (AID 504725); design: species or system Human gammaherpesvirus 8;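 note: fluorescence polarization of a labeled DNA duplex reporting LANA DNA binding; potency is for inhibitors that block LANA binding to the DNA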
Troponin, cardiac muscle = Troponin, cardiac muscle (Homo sapiens, UniProt P19429+P45379+P63316); assay: compounds desensitizing RTF to calcium – biochemical, fluorescence, cardiac regulated thin filaments, triplicate IC50, dose response (AID 504742); format: protein-complex assay
[7] = target: Intestinal-type alkaline phosphatase (Mus musculus, UniProt P24822); assay: PubChem AID 488785; format: functional
Sequence of Intestinal-type alkaline phosphatase (Mus musculus, UniProt P24822) (P24822 whole entry): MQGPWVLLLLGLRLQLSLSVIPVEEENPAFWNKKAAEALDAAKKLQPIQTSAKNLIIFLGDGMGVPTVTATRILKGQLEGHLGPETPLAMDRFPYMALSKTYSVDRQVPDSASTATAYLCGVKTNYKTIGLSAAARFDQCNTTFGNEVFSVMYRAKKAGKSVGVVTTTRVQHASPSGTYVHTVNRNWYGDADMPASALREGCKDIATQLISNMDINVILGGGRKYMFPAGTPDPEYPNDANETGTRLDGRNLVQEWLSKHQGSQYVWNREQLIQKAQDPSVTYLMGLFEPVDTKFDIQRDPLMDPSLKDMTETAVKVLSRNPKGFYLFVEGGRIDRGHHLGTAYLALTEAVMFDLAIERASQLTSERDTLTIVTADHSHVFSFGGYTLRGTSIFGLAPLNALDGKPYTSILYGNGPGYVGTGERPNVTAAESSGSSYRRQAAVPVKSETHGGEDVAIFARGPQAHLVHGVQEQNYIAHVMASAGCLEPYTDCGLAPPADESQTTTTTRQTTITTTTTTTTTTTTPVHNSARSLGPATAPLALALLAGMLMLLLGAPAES

[8] = target: T2, Alkaline phosphatase, tissue-nonspecific isozyme (Homo sapiens, UniProt P05186); assay: TNAP enzyme inhibition by screening hits, dose response, selectivity assay for mouse IAP inhibitor project, biochemical, human TNAP, uHTS hits (AID 488906); format: functional
T2 sequence (P05186 whole entry): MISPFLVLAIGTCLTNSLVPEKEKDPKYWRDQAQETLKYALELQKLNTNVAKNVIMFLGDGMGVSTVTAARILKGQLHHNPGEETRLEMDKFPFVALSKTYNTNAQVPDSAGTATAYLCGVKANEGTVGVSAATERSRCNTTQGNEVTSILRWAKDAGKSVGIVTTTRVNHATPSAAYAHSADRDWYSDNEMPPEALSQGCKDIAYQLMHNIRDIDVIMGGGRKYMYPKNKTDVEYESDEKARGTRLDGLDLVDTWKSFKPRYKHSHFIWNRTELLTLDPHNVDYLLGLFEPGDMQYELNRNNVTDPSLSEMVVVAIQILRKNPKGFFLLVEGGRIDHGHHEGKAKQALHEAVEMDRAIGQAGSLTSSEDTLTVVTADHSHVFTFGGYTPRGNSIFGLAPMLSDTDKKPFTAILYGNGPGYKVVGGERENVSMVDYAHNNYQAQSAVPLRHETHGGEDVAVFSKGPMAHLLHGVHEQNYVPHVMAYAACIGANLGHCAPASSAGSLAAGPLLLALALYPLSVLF

[9] = target: Intestinal-type alkaline phosphatase (Homo sapiens, UniProt P09923); assay: inhibition of human intestinal alkaline phosphatase – biochemical, dose response (AID 488876); format: functional
[10] = target: T3, DNA dC->dU-editing enzyme APOBEC-3A (Homo sapiens, UniProt P31941); assay: SAR analysis of small molecule inhibitors of APOBEC3A DNA Deaminase via a fluorescence-based single-stranded DNA deaminase assay - Set 2.; format: functional; settings: read-out: IC50_Mean
T3 sequence (P31941 whole entry): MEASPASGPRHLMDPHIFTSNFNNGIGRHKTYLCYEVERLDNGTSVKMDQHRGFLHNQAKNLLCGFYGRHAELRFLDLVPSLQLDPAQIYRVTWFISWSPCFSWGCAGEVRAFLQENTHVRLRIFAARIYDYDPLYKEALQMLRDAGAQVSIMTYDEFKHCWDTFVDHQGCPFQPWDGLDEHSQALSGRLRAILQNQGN

[11] = target: T4, DNA dC->dU-editing enzyme APOBEC-3G (Homo sapiens, UniProt Q9HC16); assay: SAR analysis of small molecule inhibitors of APOBEC3G DNA Deaminase via a fluorescence-based single-stranded DNA deaminase assay - Set 2.; format: functional; settings: read-out: IC50_Mean
T4 sequence (Q9HC16 whole entry): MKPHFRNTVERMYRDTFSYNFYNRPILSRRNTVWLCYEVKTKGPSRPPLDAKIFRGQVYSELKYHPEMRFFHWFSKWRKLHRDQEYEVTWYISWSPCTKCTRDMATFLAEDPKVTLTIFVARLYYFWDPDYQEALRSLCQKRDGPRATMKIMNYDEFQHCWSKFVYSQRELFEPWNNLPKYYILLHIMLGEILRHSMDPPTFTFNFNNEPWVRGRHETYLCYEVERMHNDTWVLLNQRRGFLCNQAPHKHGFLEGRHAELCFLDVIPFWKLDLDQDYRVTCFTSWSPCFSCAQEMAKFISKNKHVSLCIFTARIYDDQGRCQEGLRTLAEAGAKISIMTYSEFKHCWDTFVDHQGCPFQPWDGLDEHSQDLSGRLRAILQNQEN

[12] = target: T4, DNA dC->dU-editing enzyme APOBEC-3G; assay: inhibition of APOBEC3G ssDNA deamination – biochemical, fluorescence, single-stranded DNA substrate, SAR follow-up (AID 602136); format: functional; settings: read-out: IC50_Mean
[13] = target: T3, DNA dC->dU-editing enzyme APOBEC-3A; assay: SAR analysis of small molecule inhibitors of APOBEC3A DNA Deaminase via a fluorescence-based single-stranded DNA deaminase assay.; format: functional; settings: read-out: IC50_Mean
[14] = IC50 of Artemis nuclease activity blockers – biochemical, fluorescence intensity, dose response (AID 720701); format: functional;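 note: Artemis endonuclease enzyme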
[15] = target: T5, Histone-lysine N-methyltransferase NSD2 (Homo sapiens, UniProt O96028); format: biochemical
T5 sequence (O96028 whole entry): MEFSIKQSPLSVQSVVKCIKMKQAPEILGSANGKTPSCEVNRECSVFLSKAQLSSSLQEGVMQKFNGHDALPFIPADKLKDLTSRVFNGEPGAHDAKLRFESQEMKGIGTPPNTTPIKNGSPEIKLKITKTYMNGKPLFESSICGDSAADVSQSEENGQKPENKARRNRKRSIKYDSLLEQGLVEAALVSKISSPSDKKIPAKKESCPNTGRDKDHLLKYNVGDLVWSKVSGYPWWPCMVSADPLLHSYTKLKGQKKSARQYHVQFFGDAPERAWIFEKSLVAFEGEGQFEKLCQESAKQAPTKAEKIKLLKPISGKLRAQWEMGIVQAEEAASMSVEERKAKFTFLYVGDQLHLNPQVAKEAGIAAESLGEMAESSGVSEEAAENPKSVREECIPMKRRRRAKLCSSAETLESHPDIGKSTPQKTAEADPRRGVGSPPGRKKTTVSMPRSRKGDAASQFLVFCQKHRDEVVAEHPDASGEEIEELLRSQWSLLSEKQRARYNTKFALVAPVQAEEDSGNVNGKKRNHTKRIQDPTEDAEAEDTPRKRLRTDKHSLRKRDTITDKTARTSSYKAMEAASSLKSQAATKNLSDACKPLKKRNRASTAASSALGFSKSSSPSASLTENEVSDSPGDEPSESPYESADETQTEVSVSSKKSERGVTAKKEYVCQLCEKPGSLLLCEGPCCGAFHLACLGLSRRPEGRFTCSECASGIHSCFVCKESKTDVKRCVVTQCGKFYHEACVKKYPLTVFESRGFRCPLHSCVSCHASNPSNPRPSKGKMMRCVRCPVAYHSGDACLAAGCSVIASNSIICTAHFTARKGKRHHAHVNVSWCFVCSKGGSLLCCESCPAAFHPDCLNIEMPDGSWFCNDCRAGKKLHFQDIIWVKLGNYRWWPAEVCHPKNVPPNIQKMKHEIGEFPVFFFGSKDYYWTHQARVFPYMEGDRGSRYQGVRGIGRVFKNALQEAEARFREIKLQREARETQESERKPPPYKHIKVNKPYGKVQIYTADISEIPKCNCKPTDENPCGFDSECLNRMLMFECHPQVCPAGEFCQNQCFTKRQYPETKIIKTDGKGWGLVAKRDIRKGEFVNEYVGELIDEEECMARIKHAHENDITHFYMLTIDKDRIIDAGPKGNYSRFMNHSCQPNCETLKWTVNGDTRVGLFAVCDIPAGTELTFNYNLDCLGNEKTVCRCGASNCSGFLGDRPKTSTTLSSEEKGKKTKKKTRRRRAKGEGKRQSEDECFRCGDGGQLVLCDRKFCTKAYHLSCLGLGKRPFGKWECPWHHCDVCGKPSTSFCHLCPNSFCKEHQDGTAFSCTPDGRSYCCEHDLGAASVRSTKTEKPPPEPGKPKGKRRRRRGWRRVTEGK

[16] = target: 1-phosphatidylinositol 4,5-bisphosphate phosphodiesterase gamma-1 (Homo sapiens, UniProt P19174); assay: Counterscreen for inhibitors of phospholipase C isozymes (PLC-B3): Fluorescence-based biochemical high throughput dose response assay to identify inhibitors of phospholipase C isozymes (PLC-gamma1).
[17] = target: 1-phosphatidylinositol 4,5-bisphosphate phosphodiesterase beta-3 (Homo sapiens, UniProt Q01970); assay: Fluorescence-based biochemical high throughput dose response assay to identify inhibitors of phospholipase C isozymes (PLC-B3).
Sequence of 1-phosphatidylinositol 4,5-bisphosphate phosphodiesterase beta-3 (Q01970 whole entry): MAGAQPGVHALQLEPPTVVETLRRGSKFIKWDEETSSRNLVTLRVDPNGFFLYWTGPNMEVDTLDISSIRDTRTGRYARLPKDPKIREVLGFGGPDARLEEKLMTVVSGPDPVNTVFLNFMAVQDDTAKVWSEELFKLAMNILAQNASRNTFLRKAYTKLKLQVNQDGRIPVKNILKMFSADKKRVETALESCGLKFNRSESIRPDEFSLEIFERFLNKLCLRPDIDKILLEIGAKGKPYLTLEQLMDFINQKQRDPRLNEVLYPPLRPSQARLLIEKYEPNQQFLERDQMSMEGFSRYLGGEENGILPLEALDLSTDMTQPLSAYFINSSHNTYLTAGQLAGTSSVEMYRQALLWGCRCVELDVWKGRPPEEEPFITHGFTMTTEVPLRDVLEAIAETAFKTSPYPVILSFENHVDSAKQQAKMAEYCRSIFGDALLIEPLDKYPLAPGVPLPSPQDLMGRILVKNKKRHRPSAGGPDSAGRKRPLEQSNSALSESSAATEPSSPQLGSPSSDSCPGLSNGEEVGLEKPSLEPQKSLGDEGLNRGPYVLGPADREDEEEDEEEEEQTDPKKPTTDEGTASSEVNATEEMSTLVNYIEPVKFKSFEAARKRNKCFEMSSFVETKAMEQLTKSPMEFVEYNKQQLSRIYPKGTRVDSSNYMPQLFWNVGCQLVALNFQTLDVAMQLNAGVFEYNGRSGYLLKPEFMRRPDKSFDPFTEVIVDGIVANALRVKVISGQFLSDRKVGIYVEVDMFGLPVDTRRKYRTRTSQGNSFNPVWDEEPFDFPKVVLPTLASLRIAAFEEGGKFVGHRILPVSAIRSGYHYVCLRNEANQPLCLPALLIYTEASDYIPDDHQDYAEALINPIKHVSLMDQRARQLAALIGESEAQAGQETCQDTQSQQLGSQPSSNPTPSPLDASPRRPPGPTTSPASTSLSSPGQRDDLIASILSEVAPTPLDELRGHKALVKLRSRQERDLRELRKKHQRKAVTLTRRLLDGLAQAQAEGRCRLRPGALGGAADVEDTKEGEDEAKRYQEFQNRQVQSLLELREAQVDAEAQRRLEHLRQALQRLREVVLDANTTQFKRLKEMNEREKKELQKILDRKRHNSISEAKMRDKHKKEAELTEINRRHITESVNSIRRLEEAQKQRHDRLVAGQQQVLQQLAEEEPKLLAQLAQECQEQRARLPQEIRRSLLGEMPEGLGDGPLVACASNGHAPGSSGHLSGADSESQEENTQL

[18] = microbe, parasite or virus in culture; format: functional; settings: Mycobacterium tuberculosis
[19] = Luminescence Cell-Based Dose Retest to Confirm Inhibitors of Cancer Stem Cells. [Related pubchem assays (depositor defined):AID2717, AID2721]; format: functional; settings: Homo sapiens
[20] = viability loss of HMLE_sh_eGFP cells – cell-based, luminescence, counter-screen for HMLE_sh_ECad selective toxicity project, dose response (AID 463074); format: functional, Homo sapiens;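 note: HMLE human mammary epithelial cells expressing control shRNA against eGFP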
[21] = Vero cell cytotoxicity, dose response, cytotoxicity control for M. tuberculosis growth inhibitor project, Vero cells, purified and synthesized compounds, set 5 (AID 504909); format: functional; settings: Mycobacterium tuberculosis
[22] = A Cell Based Secondary Assay to Explore Cytotoxicity in THP-1 Cells of Compounds that Modulate Mycobacterium tuberculosis in Media Containing Glycerol versus Media without Glycerol (2).; format: functional
[23] = Vero cell cytotoxicity, cytotoxicity control for M. tuberculosis inhibitor project, purified and synthesized samples, set 3 (AID 504684); format: functional
[24] = HepG2 cell cytotoxicity, cytotoxicity control, set 4 (AID 504910); format: functional; settings: Mycobacterium tuberculosis
[25] = THP-1 cell cytotoxicity, cytotoxicity control, set 4 (AID 504911); format: functional; settings: Mycobacterium tuberculosis
[26] = A Cell Based Secondary Assay to Explore Cytotoxicity in HepG2 Cells of Compounds that Modulate Mycobacterium tuberculosis in Media Containing Glycerol versus Media without Glycerol (2).; format: functional
[27] = HepG2 cell cytotoxicity, dose response, cytotoxicity control, set 3 (AID 504853); format: functional; settings: Mycobacterium tuberculosis
[28] = THP-1 cell cytotoxicity, dose response, cytotoxicity control, set 3 (AID 504852); format: functional; settings: Mycobacterium tuberculosis
[29] = Vero cell cytotoxicity, dose response, cytotoxicity control for M. tuberculosis growth inhibitor project, Vero cells, purified and synthesized compounds, set 4 (AID 504854); format: functional; settings: Mycobacterium tuberculosis

COc1ccc(C2=NOC(C(=O)O)C2)cc1 (configuration not stated)
inactive: EC50 [1] > 100 µM | EC50 [2] > 100 µM

N#CC(c1ccc(F)cc1)c1c(Br)cnn(Cc2cccc3ccccc23)c1=O (configuration not stated)
active: IC50 [3] 0.24 µM | IC50 [4] 0.24 µM

CC(C(=O)O)N1C(=O)/C(=C/C=C/c2ccco2)SC1=S (configuration not stated)
inactive: IC50 (Troponin, cardiac muscle) > 71.5 µM | IC50 [8] > 100 µM | IC50 [9] > 100 µM | IC50 [14] > 20 µM | IC50 [16] > 122 µM | IC50 [17] > 122 µM
active: IC50 [5] 1.07 µM | IC50 [6] 61.4 µM | IC50 (Ephrin type-A receptor 4) 2.79 µM | AC50 (ORF 73) 45.6 µM | IC50 [7] 10 µM | IC50 [10] 1.21 µM | IC50 [11] 0.884 µM | IC50 [12] 2.08 µM | IC50 [13] 1.19 µM | AC50 [15] 1.63 µM

Cc1cccc(-c2oc3ccc(-c4ccc5c(c4)OCO5)cc3c2C#Cc2cncn2C)c1
active: CC50 [18] > 40 µM | AC50 [19] 5.28 µM | AC50 [20] 21.8 µM | CC50 [21] 85.2 µM | CC50 [22] 43.8 µM | CC50 [23] 42.3 µM | CC50 [24] > 50 µM | CC50 [25] > 44.8 µM | CC50 [26] > 50 µM | CC50 [27] > 50 µM | CC50 [28] 34.6 µM | CC50 [29] > 93 µM
